Data taken from patent publication US7939552B2, “Benzyloxypropylamine derivative” (Nippon Zoki Pharmaceutical Co., Ltd., priority 2005, dated 2011).
Counter-ions that a name gives are not always drawn.

Biological target: T1, human NK1 receptor (Homo sapiens, UniProt P25103)
T1 construct: expressed in transfected cells; host or cells: CHO cells (hNK1-CHO)
Experiment: Human NK1 receptor binding assay (3H-Sar9-SP, hNK1-CHO cells)
Conditions: room temperature 60 minutes
Method: A supernatant liquid was removed from an hNK1-CHO cell incubation flask in a confluent state, trypsin (0.25%)-EDTA (1 mmol/L) (Gibco) was added thereto and the cells were exfoliated and recovered. After they were washed with a buffer A (pH 7.5; 50 mmol/L Tris hydrochloride 50 mmol/L, 150 mmol/L NaCl and 0.02% BSA) for one time (at […] for 5 minutes), cell numbers were adjusted and re-floated on a buffer for assay {a buffer A to which 40 μg/mL bacitracin (Sigma), 4 μg/mL leupeptin (Sigma), 4 μg/mL chymostatin (Sigma) and 4 μg/mL phosphoramidon (Sigma) were added}. The hNK1-CHO cells (100 μL) were placed in a tube (TPX-12, Maruemu) in which 300 μL of the buffer for assay was charged so as to make cells 10^5 per tube, 50 μL of a hot solution (^3H-Sar^9-SP, final concentration: […]) and 50 μL of a substance to be tested were added (a system of 500 μL), stirred and made to react at room temperature for 60 minutes. After completion of the reaction, it was filtered through a GF/B filter (25 mm diameter, Whatman) which was previously dipped in 0.1% polyethyleneimine p-70 (Wako Pure Chemical), washed with the buffer A (4 mL each for three times), placed in a vial and dried at 60° C. for one night. After drying, 10 mL of a scintillator (AL-1, toluene base, Dojindo) was added thereto and dpm was measured by a liquid scintillation counter (for 5 minutes/vial).
With regard to a nonspecific binding, it was defined as the dpm when 10 μmol/L of the substance P was added instead of the substance to be tested. The experiment was conducted in duplicate and at least three experiments were repeated. IC50 value was calculated using a probit method (statistic library II, Yukms).

T1 sequence (P25103 whole entry): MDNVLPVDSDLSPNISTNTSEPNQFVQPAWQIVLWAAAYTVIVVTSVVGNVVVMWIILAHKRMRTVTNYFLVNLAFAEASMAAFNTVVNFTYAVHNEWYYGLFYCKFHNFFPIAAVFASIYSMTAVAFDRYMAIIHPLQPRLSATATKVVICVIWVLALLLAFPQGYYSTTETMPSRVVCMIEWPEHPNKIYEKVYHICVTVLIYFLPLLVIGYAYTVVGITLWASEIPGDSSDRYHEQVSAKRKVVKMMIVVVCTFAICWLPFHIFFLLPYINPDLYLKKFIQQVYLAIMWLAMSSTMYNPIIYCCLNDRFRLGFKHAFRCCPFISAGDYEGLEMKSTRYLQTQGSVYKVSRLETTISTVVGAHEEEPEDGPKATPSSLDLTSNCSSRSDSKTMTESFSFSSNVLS

In order of falling IC50:
1. O=C(CN1CCC(C(=O)O)CC1)NCC(COCc1cc(C(F)(F)F)cc(C(F)(F)F)c1)c1ccccc1 (centres unmarked) [Compound 90, 1-{[3-(3,5-Bis(trifluoromethyl)benzyloxy)-2-phenylpropylcarbamoyl]methyl}piperidine-4-carboxylic acid]  44 nM
2. O=C(CN1CCC(N2CCCCC2)CC1)NCC(COCc1cc(C(F)(F)F)cc(C(F)(F)F)c1)c1ccccc1 (centres unmarked) [Compound 91, N-[3-(3,5-Bis(trifluoromethyl)benzyloxy)-2-phenylpropyl]-2-[1,4′]bipiperidinyl-1′-ylacetamide dihydrochloride]  43.5 nM
3. CN(CC(COCc1cc(C(F)(F)F)cc(C(F)(F)F)c1)c1ccccc1)C(=O)C1CCNCC1 (centres unmarked) [Compound 93, N-[3-(3,5-Bis(trifluoromethyl)benzyloxy)-2-phenylpropyl]-N-methylpiperidine-4-carboxamide hydrochloride]  42.2 nM
4. CN(CC(COCc1cc(C(F)(F)F)cc(C(F)(F)F)c1)c1ccccc1)C(=O)CCN (centres unmarked) [Compound 102, N-[3-(3,5-Bis(trifluoromethyl)benzyloxy)-2-phenylpropyl]-N-methyl-3-aminopropionamide hydrochloride]  35.5 nM
5. NCCC(=O)NCC(COCc1cc(C(F)(F)F)cc(C(F)(F)F)c1)c1ccccc1 (centres unmarked) [Compound 74, 3-Amino-N-[3-(3,5-bis(trifluoromethyl)benzyloxy)-2-phenylpropyl]propionamide hydrochloride]  33.6 nM
6. CN(CC(COCc1cc(C(F)(F)F)cc(C(F)(F)F)c1)c1ccccc1)C(=O)CCCCN (centres unmarked) [Compound 106, 5-Aminopentanoic acid [3-(3,5-bis(trifluoromethyl)benzyloxy)-2-phenylpropyl]methylamide hydrochloride]  30.3 nM
7. CN1CCC(C(=O)N(C)CC(COCc2cc(C(F)(F)F)cc(C(F)(F)F)c2)c2ccccc2)CC1 (centres unmarked) [Compound 96, N-[3-(3,5-Bis(trifluoromethyl)benzyloxy)-2-phenylpropyl]-N-methyl-1-methylpiperidine-4-carboxamide hydrochloride]  28.5 nM
8. CN(CC(COCc1cc(C(F)(F)F)cc(C(F)(F)F)c1)c1ccc(F)cc1)C(=O)c1ccncc1 (centres unmarked) [Compound 98, N-[3-(3,5-Bis(trifluoromethyl)benzyloxy)-2-(4-fluorophenyl)propyl]-N-methylisonicotinamide]  27 nM
9. CN(CC(COCc1cc(C(F)(F)F)cc(C(F)(F)F)c1)c1ccccc1)C(=O)c1cc[n+]([O-])cc1 (centres unmarked) [Compound 99, N-[3-(3,5-Bis(trifluoromethyl)benzyloxy)-2-phenylpropyl]-N-methyl-1-oxyisonicotinamide]  23.8 nM
10. NCCC(=O)NCC(COCc1cc(C(F)(F)F)cc(C(F)(F)F)c1)c1ccc(F)cc1 (centres unmarked) [Compound 76, 3-Amino-N-[3-(3,5-bis(trifluoromethyl)benzyloxy)-2-(4-fluorophenyl)propyl]propionamide hydrochloride]  21 nM
11. N-[3-(3,5-Bis(trifluoromethyl)benzyloxy)-2-(4-fluorophenyl)propyl]-N-methylpiperidine-4-carboxamide hydrochloride [Compound 97]  20.3 nM
12. NCCCCC(=O)NCC(COCc1cc(C(F)(F)F)cc(C(F)(F)F)c1)c1ccccc1 (centres unmarked) [Compound 78, N-[3-(3,5-Bis(trifluoromethyl)benzyloxy)-2-phenylpropyl]-5-aminopentanoicamide hydrochloride]  19 nM
13. CN(CC(COCc1cc(C(F)(F)F)cc(C(F)(F)F)c1)c1ccc(F)cc1)C(=O)C1CCNCC1 (centres unmarked) [Compound 95, N-[3-(3,5-Bis(trifluoromethyl)benzyloxy)-2-(4-fluorophenyl)propyl]-N-methylpiperidine-4-carboxamide hydrochloride]  15.4 nM
14. O=C(O)CN1CCC(C(=O)NCC(COCc2cc(C(F)(F)F)cc(C(F)(F)F)c2)c2ccccc2)CC1 (centres unmarked) [Compound 80, {4-[3-(3,5-Bis(trifluoromethyl)benzyloxy)-2-phenylpropylcarbamoyl]piperidin-1-yl}acetic acid hydrochloride]  14.7 nM
15. CN(CC(COCc1cc(C(F)(F)F)cc(C(F)(F)F)c1)c1ccc(F)cc1)C(=O)c1ccnc(O)c1 (centres unmarked) [Compound 100, N-[3-(3,5-Bis(trifluoromethyl)benzyloxy)-2-(4-fluorophenyl)propyl]-2-hydroxy-N-methylisonicotinamide]  11.9 nM
16. O=C(Cc1ccc[n+]([O-])c1)NCC(COCc1cc(C(F)(F)F)cc(C(F)(F)F)c1)c1ccccc1 (centres unmarked) [Compound 41, N-[3-(3,5-Bis(trifluoromethyl)benzyloxy)-2-phenylpropyl]-2-(1-oxypyridin-3-yl)acetamide]  9.2 nM
17. O=C(NCC(COCc1cc(C(F)(F)F)cc(C(F)(F)F)c1)c1ccc(F)cc1)c1cc[n+]([O-])cc1 (single isomer, unassigned; (+)) [(+)-Compound 21]  9 nM
18. NC1CCC(C(=O)NCC(COCc2cc(C(F)(F)F)cc(C(F)(F)F)c2)c2ccccc2)CC1 (centres unmarked) [Compound 88, 4-Aminocyclohexanecarboxylic acid [3-(3,5-bis(trifluoromethyl)benzyloxy)-2-phenylpropyl]amide hydrochloride]  8.6 nM
19. O=C(C=Cc1ccc[n+]([O-])c1)NCC(COCc1cc(C(F)(F)F)cc(C(F)(F)F)c1)c1ccccc1 (centres unmarked) [Compound 54, N-[3-(3,5-Bis(trifluoromethyl)benzyloxy)-2-phenylpropyl]-3-(1-oxypyridin-3-yl)acrylamide]  8.5 nM
20. CN(CC(COCc1cc(C(F)(F)F)cc(C(F)(F)F)c1)c1ccc(F)cc1)C(=O)CCN (centres unmarked) [Compound 104, 3-Amino-N-[3-(3,5-bis(trifluoromethyl)benzyloxy)-2-(4-fluorophenyl)propyl]-N-methylpropionamide hydrochloride]  6.5 nM
21. O=C(NCC(COCc1cc(C(F)(F)F)cc(C(F)(F)F)c1)c1ccccc1)NC1CCNCC1 (centres unmarked) [Compound 86, 1-[3-(3,5-Bis(trifluoromethyl)benzyloxy)-2-phenylpropyl]-3-piperidin-4-ylurea hydrochloride]  6 nM
22. C[n+]1ccc(C(=O)NCC(COCc2cc(C(F)(F)F)cc(C(F)(F)F)c2)c2ccccc2)cc1 (centres unmarked) [Compound 26, 4-[3-(3,5-Bis(trifluoromethyl)benzyloxy)-2-phenylpropylcarbamoyl]-1-methylpyridinium iodide]  5.9 nM
23. O=C(NCC(COCc1cc(C(F)(F)F)cc(C(F)(F)F)c1)c1ccc(F)cc1)c1cc[n+]([O-])cc1 (single isomer, unassigned; (-)) [(−)-Compound 21]  1.5 nM
